Measured values: patent publication US20230310428A1, “EGFR INHIBITOR AND PREPARATION METHOD AND USE THEREOF” (HONGYUN BIOTECH CO., LTD., priority 2020, published 2023)
Like-named read-outs stand apart in the source and are kept apart here.

Legend:
Experiment in all cases: Growth inhibitory activity of compounds on BaF3 cell lines stably transfected with kinase (MTS, 48 h)
Type in all cases: cell-based
[1] = molecular target: T1, various mutants of kinase EGFR (BaF3 cell lines stably transfected with kinase) (Homo sapiens, UniProt P00533)
T1 construct: other: BaF3 cells stably transfected with EGFR Δ19Del; MTS, 48 h; other: BaF3 cell line stably transfected with EGFR Δ19Del
How it was run: (§1)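 Transfected cells received compound (max 10 µM, 8 concentrations) for 48 h; MTS readout at 490 nm yielded IC50.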

[2] = molecular target: T2, various mutants of kinase EGFR (BaF3 cell lines stably transfected with kinase) (Homo sapiens, UniProt P00533, C797S/L858R/T790M)
T2 construct: expressed in transfected cells; host or cells: BaF3
How it was run: as §1

[3] = molecular target: T3, various mutants of kinase EGFR (BaF3 cell lines stably transfected with kinase) (Homo sapiens, UniProt P00533, L858R)
T3 construct: expressed in transfected cells; host or cells: BaF3
How it was run: as §1

[4] = molecular target: T4, various mutants of kinase EGFR (BaF3 cell lines stably transfected with kinase) (Homo sapiens, UniProt P00533, L858R/T790M)
T4 construct: expressed in transfected cells; host or cells: BaF3
How it was run: as §1

[5] = molecular target: T5, various mutants of kinase EGFR (BaF3 cell lines stably transfected with kinase) (Homo sapiens, UniProt P00533, T790M/C797S, form not given)
T5 construct: other: BaF3 cells stably transfected with EGFR Δ19Del/T790M/C797S; MTS, 48; other: BaF3 cell line stably transfected with EGFR Δ19Del/T790M/C7
How it was run: as §1

[6] = molecular target: T6, various mutants of kinase EGFR (BaF3 cell lines stably transfected with kinase) (Homo sapiens, UniProt P00533, T790M, form not given)
T6 construct: other: BaF3 cells stably transfected with EGFR Δ19Del/T790M; MTS, 48 h; other: BaF3 cell line stably transfected with EGFR Δ19Del/T790M; MTS, 48
How it was run: as §1

[7] = BaF3 cells stably transfected with EGFR Δ19Del, read-out: IC50, growth inhibition, Δ19Del
[8] = BaF3 cells stably transfected with EGFR L858R/T790M/C797S, read-out: IC50, growth inhibition, L858R/T790M/C797S
[9] = BaF3 cells stably transfected with EGFR L858R, read-out: IC50, growth inhibition, L858R
[10] = BaF3 cells stably transfected with EGFR L858R/T790M, read-out: IC50, growth inhibition, L858R/T790M
[11] = BaF3 cells stably transfected with EGFR Δ19Del/T790M/C797S, read-out: IC50, growth inhibition, Δ19Del/T790M/C797S
[12] = BaF3 cells stably transfected with EGFR Δ19Del/T790M, read-out: IC50, growth inhibition, Δ19Del/T790M
[13] = BaF3 cell line stably transfected with EGFR Δ19Del, read-out: Δ19Del growth inhibitory activity IC50
[14] = BaF3 cell line stably transfected with EGFR L858R/T790M/C797S, read-out: L858R/T790M/ C797S growth inhibitory activity IC50
[15] = BaF3 cell line stably transfected with EGFR L858R, read-out: L858R growth inhibitory activity IC50
[16] = BaF3 cell line stably transfected with EGFR L858R/T790M, read-out: L858R/ T790M growth inhibitory activity IC50
[17] = BaF3 cell line stably transfected with EGFR Δ19Del/T790M/C797S, read-out: Δ19Del/T790M/ C797S growth inhibitory activity IC50
[18] = BaF3 cell line stably transfected with EGFR Δ19Del/T790M, read-out: Δ19Del/ T790M growth inhibitory activity IC50

T2 sequence (P00533 25-1210 T790M/C797S/L858R): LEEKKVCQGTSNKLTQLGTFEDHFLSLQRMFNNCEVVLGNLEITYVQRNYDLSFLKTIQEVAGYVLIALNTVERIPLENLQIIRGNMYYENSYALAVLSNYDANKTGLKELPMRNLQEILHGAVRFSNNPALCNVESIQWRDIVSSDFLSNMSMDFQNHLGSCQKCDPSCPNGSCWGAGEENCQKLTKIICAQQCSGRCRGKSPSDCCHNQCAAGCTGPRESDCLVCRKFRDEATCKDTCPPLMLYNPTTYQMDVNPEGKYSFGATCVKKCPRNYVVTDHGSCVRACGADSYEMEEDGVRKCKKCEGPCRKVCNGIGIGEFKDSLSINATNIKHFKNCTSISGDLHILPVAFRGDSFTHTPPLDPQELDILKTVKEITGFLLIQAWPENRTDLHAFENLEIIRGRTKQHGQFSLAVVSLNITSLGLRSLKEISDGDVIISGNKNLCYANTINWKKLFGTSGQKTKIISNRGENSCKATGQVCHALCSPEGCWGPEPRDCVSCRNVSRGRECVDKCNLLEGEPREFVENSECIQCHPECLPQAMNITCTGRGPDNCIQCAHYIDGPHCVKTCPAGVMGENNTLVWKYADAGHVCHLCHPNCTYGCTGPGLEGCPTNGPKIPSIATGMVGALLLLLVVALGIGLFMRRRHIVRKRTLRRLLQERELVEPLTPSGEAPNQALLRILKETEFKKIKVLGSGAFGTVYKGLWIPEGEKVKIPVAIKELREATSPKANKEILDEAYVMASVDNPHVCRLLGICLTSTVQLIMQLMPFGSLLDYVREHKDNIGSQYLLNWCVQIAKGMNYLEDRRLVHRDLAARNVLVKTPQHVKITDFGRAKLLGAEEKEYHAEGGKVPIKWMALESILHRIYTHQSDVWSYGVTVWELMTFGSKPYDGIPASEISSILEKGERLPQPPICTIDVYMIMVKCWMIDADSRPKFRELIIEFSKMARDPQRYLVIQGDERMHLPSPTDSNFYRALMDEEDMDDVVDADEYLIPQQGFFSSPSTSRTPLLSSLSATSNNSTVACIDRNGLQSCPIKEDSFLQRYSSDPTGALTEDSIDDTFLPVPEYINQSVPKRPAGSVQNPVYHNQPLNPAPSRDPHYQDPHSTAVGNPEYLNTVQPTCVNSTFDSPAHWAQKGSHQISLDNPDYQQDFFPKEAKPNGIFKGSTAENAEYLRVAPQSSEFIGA
T5 sequence (P00533 with tags, fused parts or gaps DEL746-750/T790M/C797S, form open): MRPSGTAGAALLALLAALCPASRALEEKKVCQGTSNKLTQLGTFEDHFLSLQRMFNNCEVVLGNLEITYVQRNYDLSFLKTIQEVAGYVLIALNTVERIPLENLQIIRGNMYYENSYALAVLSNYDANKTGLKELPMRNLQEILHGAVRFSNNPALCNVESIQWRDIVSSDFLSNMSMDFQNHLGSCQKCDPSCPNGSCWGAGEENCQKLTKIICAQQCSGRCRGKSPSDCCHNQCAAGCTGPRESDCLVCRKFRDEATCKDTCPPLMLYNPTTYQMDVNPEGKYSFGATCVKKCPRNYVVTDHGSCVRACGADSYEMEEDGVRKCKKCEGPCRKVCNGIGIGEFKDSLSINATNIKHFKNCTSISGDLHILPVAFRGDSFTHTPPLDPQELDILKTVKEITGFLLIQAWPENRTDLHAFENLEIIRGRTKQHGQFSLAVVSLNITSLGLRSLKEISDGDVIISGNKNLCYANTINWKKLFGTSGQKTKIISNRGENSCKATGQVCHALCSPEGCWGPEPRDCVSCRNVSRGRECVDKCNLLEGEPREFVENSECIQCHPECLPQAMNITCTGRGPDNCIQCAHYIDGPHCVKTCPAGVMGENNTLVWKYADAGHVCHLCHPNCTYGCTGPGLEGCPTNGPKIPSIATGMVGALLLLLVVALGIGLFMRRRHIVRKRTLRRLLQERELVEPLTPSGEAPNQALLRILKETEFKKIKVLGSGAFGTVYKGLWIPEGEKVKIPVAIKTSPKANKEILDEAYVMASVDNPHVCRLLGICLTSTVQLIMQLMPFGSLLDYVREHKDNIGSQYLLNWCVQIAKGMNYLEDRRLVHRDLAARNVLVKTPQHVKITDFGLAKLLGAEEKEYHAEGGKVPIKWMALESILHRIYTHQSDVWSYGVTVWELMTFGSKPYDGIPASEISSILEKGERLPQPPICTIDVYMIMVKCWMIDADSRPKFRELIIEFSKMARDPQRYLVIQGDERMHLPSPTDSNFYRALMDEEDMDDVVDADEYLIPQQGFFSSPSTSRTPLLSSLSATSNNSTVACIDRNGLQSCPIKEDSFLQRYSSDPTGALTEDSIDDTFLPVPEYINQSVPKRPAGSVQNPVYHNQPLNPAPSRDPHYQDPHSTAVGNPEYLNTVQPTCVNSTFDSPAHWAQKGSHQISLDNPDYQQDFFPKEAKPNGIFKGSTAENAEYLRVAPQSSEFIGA
T4 sequence (P00533 25-1210 T790M/L858R): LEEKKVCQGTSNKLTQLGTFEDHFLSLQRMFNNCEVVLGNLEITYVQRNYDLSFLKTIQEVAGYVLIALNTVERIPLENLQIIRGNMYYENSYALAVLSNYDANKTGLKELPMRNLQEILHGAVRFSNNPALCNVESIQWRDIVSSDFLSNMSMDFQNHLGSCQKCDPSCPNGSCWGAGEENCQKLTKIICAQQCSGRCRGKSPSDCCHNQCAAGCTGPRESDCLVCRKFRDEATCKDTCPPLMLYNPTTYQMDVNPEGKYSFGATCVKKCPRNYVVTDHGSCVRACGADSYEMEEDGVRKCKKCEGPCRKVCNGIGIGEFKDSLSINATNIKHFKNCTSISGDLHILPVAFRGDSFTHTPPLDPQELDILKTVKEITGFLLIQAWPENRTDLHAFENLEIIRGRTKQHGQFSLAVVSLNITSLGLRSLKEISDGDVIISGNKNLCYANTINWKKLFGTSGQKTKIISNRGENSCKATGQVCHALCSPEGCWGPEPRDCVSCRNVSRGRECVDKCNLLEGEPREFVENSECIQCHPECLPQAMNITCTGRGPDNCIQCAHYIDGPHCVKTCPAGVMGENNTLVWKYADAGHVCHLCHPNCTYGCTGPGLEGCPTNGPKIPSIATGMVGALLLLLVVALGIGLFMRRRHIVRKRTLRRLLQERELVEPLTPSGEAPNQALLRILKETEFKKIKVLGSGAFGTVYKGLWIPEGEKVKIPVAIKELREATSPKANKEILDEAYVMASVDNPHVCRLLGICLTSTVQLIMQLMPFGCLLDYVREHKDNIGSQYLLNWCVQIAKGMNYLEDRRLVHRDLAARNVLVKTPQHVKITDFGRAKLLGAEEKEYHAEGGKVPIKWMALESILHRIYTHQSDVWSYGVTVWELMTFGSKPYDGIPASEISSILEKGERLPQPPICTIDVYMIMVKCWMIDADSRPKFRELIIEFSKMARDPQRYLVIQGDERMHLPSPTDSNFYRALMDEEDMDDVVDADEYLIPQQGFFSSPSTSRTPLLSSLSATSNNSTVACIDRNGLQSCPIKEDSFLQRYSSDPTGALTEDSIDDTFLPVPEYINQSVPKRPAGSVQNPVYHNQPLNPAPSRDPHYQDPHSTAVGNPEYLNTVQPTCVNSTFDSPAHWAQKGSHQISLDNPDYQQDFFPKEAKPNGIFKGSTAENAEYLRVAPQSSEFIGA
T1 sequence (P00533 with tags, fused parts or gaps DEL746-750): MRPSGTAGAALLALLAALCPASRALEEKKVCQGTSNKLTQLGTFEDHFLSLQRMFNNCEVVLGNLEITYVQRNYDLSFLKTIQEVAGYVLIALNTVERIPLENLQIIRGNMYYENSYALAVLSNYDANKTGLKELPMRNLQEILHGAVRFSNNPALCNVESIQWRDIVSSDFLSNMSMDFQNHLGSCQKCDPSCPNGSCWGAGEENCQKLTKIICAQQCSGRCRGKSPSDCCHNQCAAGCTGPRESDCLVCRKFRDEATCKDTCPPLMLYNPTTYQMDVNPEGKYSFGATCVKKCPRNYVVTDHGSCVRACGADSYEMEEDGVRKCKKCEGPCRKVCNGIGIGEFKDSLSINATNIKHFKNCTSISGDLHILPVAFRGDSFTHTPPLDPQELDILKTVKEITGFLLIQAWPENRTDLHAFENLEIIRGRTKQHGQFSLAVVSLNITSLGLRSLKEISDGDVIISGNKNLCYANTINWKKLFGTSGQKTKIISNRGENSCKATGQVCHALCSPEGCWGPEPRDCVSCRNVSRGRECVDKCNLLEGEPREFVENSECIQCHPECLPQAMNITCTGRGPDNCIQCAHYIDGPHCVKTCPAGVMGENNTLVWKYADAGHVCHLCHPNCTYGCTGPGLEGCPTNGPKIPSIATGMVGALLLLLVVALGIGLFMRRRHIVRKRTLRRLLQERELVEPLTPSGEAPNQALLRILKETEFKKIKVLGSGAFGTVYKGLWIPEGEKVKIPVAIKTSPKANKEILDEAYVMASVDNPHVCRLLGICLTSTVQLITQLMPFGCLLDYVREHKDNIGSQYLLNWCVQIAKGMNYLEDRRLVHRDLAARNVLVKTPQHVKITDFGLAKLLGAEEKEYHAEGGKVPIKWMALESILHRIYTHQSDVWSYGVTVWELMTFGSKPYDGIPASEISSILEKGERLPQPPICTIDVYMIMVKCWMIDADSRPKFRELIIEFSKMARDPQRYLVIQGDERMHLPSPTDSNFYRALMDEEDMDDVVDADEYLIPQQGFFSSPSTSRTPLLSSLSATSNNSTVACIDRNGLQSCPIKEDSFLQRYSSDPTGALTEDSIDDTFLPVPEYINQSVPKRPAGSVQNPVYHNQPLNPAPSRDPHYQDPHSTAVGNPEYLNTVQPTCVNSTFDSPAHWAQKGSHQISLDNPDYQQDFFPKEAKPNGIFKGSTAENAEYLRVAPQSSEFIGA

SMILES	IC50 [1, 7] [nM]	IC50 [2, 8] [nM]	IC50 [3, 9] [nM]	IC50 [4, 10] [nM]	IC50 [5, 11] [nM]	IC50 [6, 12] [nM]	IC50 [1, 13] [nM]	IC50 [2, 14] [nM]	IC50 [3, 15] [nM]	IC50 [4, 16] [nM]	IC50 [5, 17] [nM]	IC50 [6, 18] [nM]
CCc1cc(Nc2ncc(C)c(Nc3ccc4nccnc4c3N(C)S(C)(=O)=O)n2)c(OC(F)(F)F)cc1N1CCC(N2CCN(C)CC2)CC1 [Compound I-314]							50 to 500	≤ 50	50 to 500	≤ 50	≤ 50	≤ 50
COc1ccc(N2CCC(O)CC2)cc1Nc1ncc(Cl)c(Nc2ccc3nccnc3c2N(C)S(C)(=O)=O)n1 [Compound I-368]							50 to 500	≤ 50	50 to 500	≤ 50	≤ 50	50 to 500
COc1cc(N2CCC(N3CCN(C)CC3)CC2)c(C2CC2)cc1Nc1ncc(Br)c(Nc2ccc3nccnc3c2N(C)S(C)(=O)=O)n1 [Compound I-285]	50 to 500	≤ 50	50 to 500	≤ 50	≤ 50	≤ 50						
Cc1ccc(Nc2ncc(Br)c(Nc3ccc4nccnc4c3N(C)S(C)(=O)=O)n2)cn1 [Compound I-63]	≤ 50	50 to 500	50 to 500	≤ 50	50 to 500	≤ 50						
CCc1cc(Nc2ncc(Br)c(Nc3ccc4nccnc4c3N(C)S(C)(=O)=O)n2)c(OC)cc1NCCO [Compound I-390]							500 to 2500	≤ 50	50 to 500	50 to 500	50 to 500	50 to 500
CCc1cc(Nc2nc(Nc3ccc4nccnc4c3N(C)S(C)(=O)=O)c3sccc3n2)c(OC(F)(F)F)cc1N1CCC(N2CCN(C)CC2)CC1 [II-1-8]							500 to 2500	50 to 500	500 to 2500	50 to 500	50 to 500	50 to 500
COc1ccc(N2CCC(O)CC2)cc1Nc1nc(Nc2ccc3nccnc3c2N(C)S(C)(=O)=O)c2sccc2n1 [II-1-45]							500 to 2500	50 to 500	50 to 500	50 to 500	≤ 50	50 to 500
COc1nc(N2CCC(N3CCN(C)CC3)CC2)ccc1Nc1ncc(Br)c(Nc2ccc3nccnc3c2N(C)S(=O)(=O)C2CC2)n1 [Compound I-216]	500 to 2500	50 to 500	500 to 2500	500 to 2500	50 to 500	500 to 2500						
CN1CCN(C2CCN(c3ccc(Nc4ncc(Cl)c(Nc5ccc6nccnc6c5N(C)S(C)(=O)=O)n4)c(OC(F)(F)F)c3)CC2)CC1 [Compound I-166]	50 to 500	50 to 500	50 to 500	50 to 500	≤ 50	50 to 500						
COc1cc(N2CCC(N3CCN(C)CC3)CC2)ccc1Nc1ncc(Br)c(Nc2ccc3nccnc3c2NS(C)(=O)=O)n1 [Compound I-401]							50 to 500	50 to 500	50 to 500	≤ 50	50 to 500	50 to 500
CCc1cc(Nc2ncc(CC)c(Nc3ccc4nccnc4c3N(C)S(C)(=O)=O)n2)c(OC)cc1N1CCC(N(C)C)CC1 [Compound I-323]							≤ 50	≤ 50	≤ 50	≤ 50	≤ 50	≤ 50
CCc1cc(Nc2ncc(Br)c(Nc3ccc4nccnc4c3N(C)S(C)(=O)=O)n2)c(OC)cc1F [Compound I-389]							500 to 2500	50 to 500	500 to 2500	500 to 2500	500 to 2500	500 to 2500
COc1nc(N2CCC(N3CCN(C)CC3)CC2)c(C)cc1Nc1ncc(Cl)c(Nc2ccc3nccnc3c2N(C2CC2)S(C)(=O)=O)n1 [Compound I-240]	500 to 2500	500 to 2500	500 to 2500	500 to 2500	500 to 2500	500 to 2500						
COc1cc(N2CCC(N3CCN(C)CC3)CC2)c(C(C)C)cc1Nc1ncc(C#N)c(Nc2ccc3nccnc3c2N(C)S(C)(=O)=O)n1 [Compound I-345]							50 to 500	50 to 500	50 to 500	50 to 500	50 to 500	50 to 500
COc1cc(N2CCC(N3CCN(C)CC3)CC2)c(C2CC2)cc1Nc1ncc(C2CC2)c(Nc2ccc3nccnc3c2N(C)S(C)(=O)=O)n1 [Compound I-292]	50 to 500	50 to 500	50 to 500	≤ 50	50 to 500	≤ 50						
CCc1cc(Nc2ncc(C(F)(F)F)c(Nc3ccc4nccnc4c3N(C)S(C)(=O)=O)n2)c(OC)cc1N1CCC(N(C)C)C1 (stereo not drawn) [Compound I-210]	≤ 50	≤ 50	≤ 50	≤ 50	≤ 50	≤ 50						
CCc1cc(Nc2ncc(F)c(Nc3ccc4nccnc4c3N(C)S(C)(=O)=O)n2)c(OC)cc1N1CCC(N(C)C)CC1 [Compound I-184]	≤ 50	≤ 50	≤ 50	≤ 50	≤ 50	50 to 500						
CCc1cc(Nc2ncc(Br)c(Nc3ccc4nccnc4c3N(C)S(C)(=O)=O)n2)ccc1N1CCC(N2CCN(C)CC2)CC1 [Compound I-286]	≤ 50	≤ 50	≤ 50	≤ 50	≤ 50	≤ 50						

Results, then the compound that gave them:

IC50 [1, 7] [nM]	IC50 [2, 8] [nM]	IC50 [3, 9] [nM]	IC50 [4, 10] [nM]	IC50 [5, 11] [nM]	IC50 [6, 12] [nM]	IC50 [1, 13] [nM]	IC50 [2, 14] [nM]	IC50 [3, 15] [nM]	IC50 [4, 16] [nM]	IC50 [5, 17] [nM]	IC50 [6, 18] [nM]	SMILES
50 to 500	≤ 50	50 to 500	≤ 50	≤ 50	≤ 50							COc1cc(N2CCC(N3CCN(C)CC3)CC2)ccc1Nc1ncc(Br)c(Nc2ccc3nccnc3c2N(C)S(=O)(=O)C2CC2)n1 [Compound I-215]
≤ 50	≤ 50	≤ 50	≤ 50	≤ 50	≤ 50							COc1cc(N2CCC(N3CCN(C)CC3)CC2)c(C)cc1Nc1ncc(C)c(Nc2ccc3nccnc3c2N(C)S(C)(=O)=O)n1 [Compound I-276]
50 to 500	50 to 500	50 to 500	50 to 500	≤ 50	50 to 500							C=Cc1cc(Nc2ncc(Cl)c(Nc3ccc4nccnc4c3N(C)S(=O)(=O)CC)n2)c(OC(F)(F)F)cc1N1CCC(N2CCN(C)CC2)CC1 [Compound I-295]
						500 to 2500	500 to 2500	500 to 2500	50 to 500	500 to 2500	500 to 2500	CCc1cc(Nc2ncc(Br)c(Nc3ccc4nccnc4c3NS(C)(=O)=O)n2)c(OC)cc1C(=O)N1CCC(N2CCN(C)CC2)CC1 [Compound I-361]
≤ 50	≤ 50	≤ 50	≤ 50	≤ 50	≤ 50							CCc1cc(Nc2ncc(Cl)c(Nc3ccc4nccnc4c3N(C)S(=O)(=O)CC)n2)c(OC)cc1N1CCC(N2CCN(C)CC2)CC1 [Compound I-115]
						50 to 500	50 to 500	50 to 500	50 to 500	500 to 2500	50 to 500	CCOc1cnc(Nc2cc(CC)c(N3CCC(N4CCN(C)CC4)CC3)nc2OC)nc1Nc1ccc2nccnc2c1N(C)S(C)(=O)=O [Compound I-338]
						≤ 50	≤ 50	≤ 50	≤ 50	≤ 50	≤ 50	CCc1cc(Nc2ncc(Br)c(Nc3ccc4nccnc4c3N(C)S(C)(=O)=O)n2)c(OC)cc1N1CCN(C2CN(C)C2)CC1 [Compound I-398]
						≤ 50	50 to 500	≤ 50	≤ 50	50 to 500	≤ 50	COc1cc(N2CCC(N3CCN(C)CC3)CC2)c(C)cc1Nc1nccc(Nc2ccc3nccnc3c2N(C)S(C)(=O)=O)n1 [Compound I-340]
≤ 50	≤ 50	≤ 50	≤ 50	≤ 50	≤ 50							CCc1cc(Nc2ncc(C(F)(F)F)c(Nc3ccc4nccnc4c3N(C)S(C)(=O)=O)n2)c(OC)cc1N1CCC(N(C)C)CC1 [Compound I-206]
